Where two headings read alike, the source gives them in different places.
What was measured:
MCF-10A = settings: GCV 14 days
MDA-435S = settings: GCV 14 days
MM2MT = test: cells; settings: Mus musculus, 336 h, GCV 14 days
Description: (§1) Each vector was then stably transfected into either MM3MG cells (ATCC No.CRL6376, a normal mouse mammary line) or MM2MT cells (ATCC No. CRL6373, a mouse mammary carcinoma line). Unless otherwise stated, all cell lines were purchased from the American Type Culture Collection (“ATCC”), Manassas, Va. To overexpress eIF4E (referred to as eIF4E-S, for “sense”), the eIF4E cDNA was cloned into KpnI and NotI sites of the pREP7 episomal vector (Invitrogen, Carlsbad, Calif.). To reduce the eIF4E expression (referred to as eIF4E-AS, for “antisense”), an antisense eIF4E construct was subcloned into the pREP7 vector as described in A. De Benedetti et al., “Expression of antisense RNA against initiation factor eIF-4E mRNA in HeLa cells results in lengthened cell division times, diminished translation rates, and reduced levels of both eIF-4E and the P220 component of eIF-4F,” Mol. Cell. Biol., vol. 11, pp. 5435-5445 (1991).
(§2) All transfections were performed with the GenePORTER reagent (Gene Therapy Systems, San Diego, Calif.). Stable cell lines were obtained by selection with G418 for the BK constructs, and Hygromycin B for the pREP7 vectors.

MM3MG = test: cells; settings: for EC50: Mus musculus, MM3MG, 336 h, GCV 14 days
Description: as §1, §2

MCF7 = settings: GCV 14 days
MM2MT tumors = test: Tumor ablation, MM2MT mammary fat pad tumors (about 40 mm^3) in athymic mice; type: in vivo, BALB/c athymic nu/nu mice; settings: GCV administered alone (data not shown)
Description: 10^6 MM2MT cells were suspended in 0.1 ml serum and antibiotic-free DMEM medium and injected subcutaneously into the mammary fat pad. Tumor latency was determined as the time necessary for the tumors to grow to 0.5 cm (largest diameter). Tumor doubling times were determined by daily measuring the smallest (d) and the largest (D) diameters with calipers, and estimating the volume using the formula, V=D×d^2×0.52. The reported numbers are the mean and standard deviation of the tumor volumes for each group.
When the tumor volumes were approximately 40 mm^3, the mice were randomly separated into two groups, and either the BK-TK or the BK-UTK vectors were injected as a liposomal complex near the tumor. To make the liposomal complex for transfection of primary tumors, 10 μg of endotoxin-free purified (QIAGEN, Inc., Valencia, Calif.) plasmid DNA was diluted in 50 μl medium without serum or antibiotics. In a separate tube, 50 μl of GenePORTER reagent (Gene Therapy Systems, San Diego, Calif.) was mixed with 50 μl serum and antibiotic-free medium. The two tubes were then combined, briefly vortexed, and allowed to incubate at room temperature for 20 minutes, after which the resulting liposome complex was injected between the tumor and the skin of the mouse.
One of the 6 mice in each group had no palpable tumor remaining at the end of the 10-day treatment.

MDA-231 = settings: for ED50: GCV 14 days

## Nc1nc(O)c2ncn(COC(CO)CO)c2n1 [GCV, Ganciclovir]
MCF-10A; MCF-10A untransfected cells
  ED50: 6000 µM
MCF-10A; MCF-10A-TK cells
  ED50: 300 µM
MCF-10A; MCF-10A-UTK cells
  ED50: 5500 µM
MDA-435S; MDA-435S untransfected cells
  ED50: 350 µM
MDA-435S; MDA-435S-TK cells
  ED50: 15 µM
MDA-435S; MDA-435S-UTK cells
  ED50: 15 µM
MM2MT; read-out: ED50, MM2MT untransfected cells
  EC50: 95 µM
MM2MT; read-out: ED50, MM2MT-TK cells
  EC50: 0.095 µM
MM2MT; read-out: ED50, MM2MT-TK/4E-AS cells
  EC50: 0.15 µM
MM2MT; read-out: ED50, MM2MT-UTK cells
  EC50: 0.5 µM
MM2MT; read-out: ED50, MM2MT-UTK/4E-AS cells
  EC50: 55 µM
MM3MG; MM3MG-TK (normal) cells, 14 days
  GCV concentration to which cells were sensitive (dose-response curve): 0.1 µM
MM3MG; read-out: ED50, MM3MG untransfected cells, concentration that kills 50% of the cells
  EC50: 200 µM
MM3MG; read-out: ED50, MM3MG-TK cells
  EC50: 0.3 µM
MM3MG; read-out: ED50, MM3MG-UTK cells
  EC50: 75 µM
MM3MG; read-out: ED50, MM3MG-UTK/4E-AS cells (so in the source)
  EC50: 0.9 µM
MM3MG; untransfected MM3MG cells, 14 days
  GCV concentration at which cells were non-specifically inhibited: 200 µM
MCF7; MCF7-TK cells
  ED50: 20 µM
MCF7; MCF7-UTK cells
  ED50: 10 µM
MCF7; MCF7 untransfected cells
  ED50: 6000 µM
MM2MT tumors
  effect on the growth of MM2MT tumors: no effect
MDA-231; MDA-231-TK and MDA-231-UTK cells, otherwise insensitive to GCV
  GCV concentration of non-specific toxicity: 5 mM
MDA-231; MDA-231-TK cells
  ED50: 4000 µM
MDA-231; MDA-231-UTK cells
  ED50: 4000 µM
MDA-231; MDA-231 untransfected cells
  ED50: 6000 µM
